Assay results: ChEMBL document CHEMBL5653612, “Catalytic site remodelling of the DOT1L methyltransferase by selective inhibitors” (Nat Commun, 2012)
One block for each compound: values may come before it. Activity calls are given as the source filed them. The calls are words filed in the database; no cut-off is given here.

Tests used:
[1] = molecular target: T1, Histone-lysine N-methyltransferase, H3 lysine-79 specific (Homo sapiens, UniProt Q8TEK3); experiment: Binding affinity to recombinant N-terminal DOT1L (1 to 420 residues) (unknown origin) expressed in Escherichia coli (DE3) assessed as dissociation constant by surface plasmon resonance assay
[2] = molecular target: T1, Histone-lysine N-methyltransferase, H3 lysine-79 specific; experiment: Inhibition of recombinant N-terminal DOT1L (1 to 420 residues) (unknown origin) expressed in Escherichia coli (DE3) using [3H]-SAM as substrate preincubated for 30 mins followed by substrate addition and measured after 2 hrs by Topcount reader analysis
MV4-11 = experiment: Downregulation of H3K79me2 in human MV4-11 cells habouring MLL/AF4 fusion protein measured upto 48 hrs by immuno blot analysis; assay type: functional, cell-based
[3] = molecular target: T1, Histone-lysine N-methyltransferase, H3 lysine-79 specific; experiment: Binding affinity to recombinant N-terminal DOT1L (1 to 420 residues) (unknown origin) expressed in Escherichia coli (DE3) assessed as dissociation constant by SPR analysis
[4] = Apparent permeability across apical to basolateral side in human Caco-2 cells at 10 uM incubated for 90 mins at pH 7.4 by LC/MS analysis; assay type: ADME, cell-based; details: Caco-2, pH 7.4
[5] = Apparent permeability across basolateral to apical side in human Caco-2 cells at 10 uM incubated for 90 mins at pH 7.4 by LC/MS analysis; assay type: ADME, cell-based; details: Caco-2, pH 7.4

T1 sequence (Q8TEK3 whole entry, the tested form may be a part): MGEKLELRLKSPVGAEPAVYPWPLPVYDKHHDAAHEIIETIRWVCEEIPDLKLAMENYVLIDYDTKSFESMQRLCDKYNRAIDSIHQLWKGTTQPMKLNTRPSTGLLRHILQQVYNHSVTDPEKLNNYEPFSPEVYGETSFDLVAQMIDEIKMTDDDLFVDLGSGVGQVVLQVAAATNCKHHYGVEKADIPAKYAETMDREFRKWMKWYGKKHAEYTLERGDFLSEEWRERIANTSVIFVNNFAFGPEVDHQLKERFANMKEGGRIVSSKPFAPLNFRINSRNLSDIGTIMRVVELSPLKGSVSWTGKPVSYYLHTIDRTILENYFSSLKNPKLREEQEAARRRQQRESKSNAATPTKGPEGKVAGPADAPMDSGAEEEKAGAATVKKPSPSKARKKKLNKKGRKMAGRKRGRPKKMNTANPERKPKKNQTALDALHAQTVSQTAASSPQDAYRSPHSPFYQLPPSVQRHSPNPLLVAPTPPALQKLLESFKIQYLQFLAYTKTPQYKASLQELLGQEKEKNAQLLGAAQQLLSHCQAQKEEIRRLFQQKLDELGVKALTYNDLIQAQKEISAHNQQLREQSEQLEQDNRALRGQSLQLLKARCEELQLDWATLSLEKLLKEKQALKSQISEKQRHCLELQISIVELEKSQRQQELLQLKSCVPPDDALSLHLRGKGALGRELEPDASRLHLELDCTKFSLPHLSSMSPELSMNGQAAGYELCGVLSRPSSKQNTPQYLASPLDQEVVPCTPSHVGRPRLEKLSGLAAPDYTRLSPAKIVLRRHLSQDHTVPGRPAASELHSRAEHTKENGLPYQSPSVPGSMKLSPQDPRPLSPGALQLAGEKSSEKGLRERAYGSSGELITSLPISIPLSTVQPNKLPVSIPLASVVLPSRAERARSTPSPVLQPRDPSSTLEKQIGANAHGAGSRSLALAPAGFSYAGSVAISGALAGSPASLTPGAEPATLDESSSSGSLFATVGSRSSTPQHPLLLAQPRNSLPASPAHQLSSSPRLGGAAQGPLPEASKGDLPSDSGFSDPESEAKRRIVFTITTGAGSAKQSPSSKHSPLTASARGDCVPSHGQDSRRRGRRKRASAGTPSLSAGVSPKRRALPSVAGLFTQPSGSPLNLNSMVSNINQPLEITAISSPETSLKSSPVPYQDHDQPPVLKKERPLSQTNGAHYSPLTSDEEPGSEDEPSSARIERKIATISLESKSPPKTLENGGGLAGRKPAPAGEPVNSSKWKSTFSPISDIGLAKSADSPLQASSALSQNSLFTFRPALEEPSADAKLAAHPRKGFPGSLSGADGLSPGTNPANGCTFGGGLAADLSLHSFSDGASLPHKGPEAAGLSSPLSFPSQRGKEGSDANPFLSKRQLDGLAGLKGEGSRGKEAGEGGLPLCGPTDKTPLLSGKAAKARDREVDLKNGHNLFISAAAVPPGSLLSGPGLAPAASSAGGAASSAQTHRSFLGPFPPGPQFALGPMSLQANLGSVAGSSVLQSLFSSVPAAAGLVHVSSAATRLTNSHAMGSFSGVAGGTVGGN

- Kd [1]: 3.35 nM
- IC50 ([2]; read-out: IC50): 3.6 nM
- Kd [3]: 3.35 nM
Structure (SMILES): CC(C)(C)c1ccc(NC(=O)NCCCNC[C@H]2O[C@@H](n3cc(Br)c4c(N)ncnc43)[C@H](O)[C@@H]2O)cc1
- Activity (MV4-11): Active

- IC50 [2]: Not Active
Structure (SMILES): CC(C)N(CCCNC(=O)c1ccc(C(C)(C)C)cc1)C[C@H]1O[C@@H](n2cnc3c(N)ncnc32)[C@H](O)[C@@H]1O

Structure (SMILES): C[C@H]1O[C@@H](O[C@H]2[C@@H](O)C[C@H](O[C@H]3[C@@H](O)C[C@H](O[C@H]4CC[C@@]5(C)[C@H](CC[C@@H]6[C@@H]5C[C@@H](O)[C@]5(C)[C@@H](C7=CC(=O)OC7)CC[C@]65O)C4)O[C@@H]3C)O[C@@H]2C)C[C@H](O)[C@@H]1O [DIGOXIN]
- Papp A→B at 1.5 h, 10 µM [4]: 0.4 ×10⁻⁶ cm/s
- Papp B→A at 1.5 h, 10 µM [5]: 13.2 ×10⁻⁶ cm/s

- Papp A→B at 1.5 h, 10 µM [4]: 68.2 ×10⁻⁶ cm/s
- Papp B→A at 1.5 h, 10 µM [5]: 31.1 ×10⁻⁶ cm/s
Structure (SMILES): COCCc1ccc(OCC(O)CNC(C)C)cc1 (centres undefined) [METOPROLOL]
